Experimental data published in patent US20240358744A1, “WOUND HEALING DRESSINGS AND FORMULATIONS AND METHODS OF USE THEREOF” (POLAROID IP B.V., priority 2023, published 2024).
≈ marks a conversion by molar mass, not a printed value.

Columns and labels:
[1] = system: Escherichia coli ATCC 25922; assay: MBC, spot plating after 24 h; conditions: for MBC EC25922: Table 18
Protocol: (§5) To determine MBC compound concentrations breakpoints were estimated from MIC curves. Overnight cultures were set up as described above for all bacterial strains. The following day overnight cultures were adjusted to give a cell density of 5×10^5 cells per mL. Briefly, cultures were adjusted to the McFarland standard (0.08-0.12) and diluted (1:150). Adjusted cultures were inoculated into 96 well plates with 50 μL sterile Muller-Hinton broth (MHB) and 2 concentrations of each compound. […] MBC cultures were quantified by serial dilution in a 96 well plate and spot plating onto Muller-Hinton agar (MHA). MHA plates were incubated at 37° C. for 24 h and counted. Results are presented as CFU per mL.
(§6) To determine MBC compound concentrations, breakpoints were estimated from MIC curves. Overnight cultures were set up as described above for all bacterial strains. The following day overnight cultures were adjusted to give a cell density of 5×10^5 cells per mL. Briefly, cultures were adjusted to the McFarland standard (0.08-0.12) and diluted (1:150). Adjusted cultures were inoculated into 96 well plates with 50 μL sterile Muller-Hinton broth (MHB) and 2 concentrations of each compound. […] MBC cultures were quantified by serial dilution in a 96 well plate and spot plating onto Muller-Hinton agar (MHA). MHA plates were incubated at 37° C. for 24 hours and counted.

[2] = system: Pseudomonas aeruginosa ATCC 27853; assay: MBC, spot plating after 24 h; conditions: Pseudomonas aeruginosa 27853; Example 11
Protocol: as §5, §6

[3] = system: Staphylococcus aureus NRS384; format: cell-based; conditions: Example 11
[4] = system: Enterococcus faecalis ATCC 19433; assay: MBC, spot plating after 24 h; conditions: Enterococcus faecalis EF19433; Example 11
Protocol: as §5, §6

[5] = system: Klebsiella pneumoniae KL1; assay: MBC, spot plating after 24 h
Protocol: as §5, §6

[6] = system: Staphylococcus aureus MR1; assay: MBC, spot plating after 24 h; conditions: Example 11
Protocol: as §5, §6

[7] = system: Enterococcus faecalis ATCC 51299; assay: MBC, spot plating after 24 h; conditions: Enterococcus faecalis EF51299; Example 11
Protocol: as §5, §6

[8] = system: Staphylococcus aureus ATCC 29213; assay: MBC, spot plating after 24 h; conditions: Staphylococcus aureus 29213; Example 11
Protocol: as §5, §6

[9] = system: Primary Human Dermal Fibroblast (HDFs); assay: LDH cytotoxicity assay, HDF; format: cell-based; conditions: Table 16, summarized cell toxicity value, 24 hours treatment
Protocol: (§1) Primary Human Dermal Fibroblast (HDFs) and Human Keratinocyte (HaCaT) cells were selected for cytotoxicity and proliferation testing. HDFs were cultured in high glucose, no glutamine, no phenol red, Dulbecco's Modified Eagle Medium (DMEM) (GIBCO™). HDF media was further supplemented with 10% heat-inactivated fetal bovine serum (GIBCO™), 1% L-glutamine (GIBCO™) and 1% Penicillin-streptomycin (GIBCO™). HaCaTs cells were cultured in high glucose, no glutamine, no calcium DMEM (GIBCO™) supplemented with 10% heat inactivated foetal bovine serum, 1% L-glutamine, 1% Penicillin-streptomycin 1 mM calcium chloride (Sigma) throughout.
(§2) Mammalian cell populations were maintained in standard culture conditions at 37° C., 5% CO2 and >95% relative humidity. Upon reaching 80% total confluency, cells were removed from the incubator, the culture media aspirated, and the monolayer washed with Dulbecco's […] (DPBS). After washing, 10 mL of 1% trypsin (GIBCO™) was added to the flask and incubated to facilitate the detachment of cells from the culture vessel. Following dissociation, 10 mL of culture media was then added to each flask to neutralize the trypsin enzyme activity. The total 20-mL flask volume was transferred into a universal tube and centrifuged at 400 rcf for 5 minutes. Once complete, the pellet of cells was re-suspended in 10 mL warmed culture media and the number of cells per mL was determined using a hemocytometer counting chamber. Cell suspensions were then adjusted to 5×10^4 cells/mL for HDFs and 1×10^5 cells/mL for HaCaTs. 100 μL of the cell suspension was added to each well of a sterile, cell-culture-treated 96-well microtiter plate. The plates were incubated in standard culture conditions for 16-24 hours to allow cellular adherence to the culture vessel. […] Culture plates were removed from the incubator, the media removed; and monolayers washed with 100 μL of warmed DPBS. The contents of the test item dilution plates were transferred to the culture plates. […]
(§3) The secretion of lactate dehydrogenase (LDH) enzyme was used for quantitatively measuring cell damage and cytotoxicity. As damage to the cell plasma membrane releases LDH into the cell culture media, the extracellular LDH in the media can be quantified by a coupled enzymatic reaction in which LDH catalyzes the conversion of lactate to pyruvate via NAD+ reduction to NADH. […]
(§4) Following incubation with the selected compounds, 50 μL of media from each well was transferred to the corresponding well of a fresh 96 well culture plate. The presence of Lactate dehydrogenase (LDH) was then quantified using the INVITROGEN™ CyQUANT™ LDH Cytotoxicity Assay, fluorescence kit. Total fluorescence was measured by reading the plates on a plate reader at an excitation of 560 nm and an emission of 590 nm. […]

[10] = system: Human Keratinocyte (HaCaT) cells; assay: LDH cytotoxicity assay, HaCaT; format: cell-based; conditions: Table 16, summarized cell toxicity value, 24 hours treatment
Protocol: as §1, §2, §3, §4

[11] = system: Klebsiella pneumoniae KL1; assay: MIC, broth microdilution in MH broth (resazurin); conditions: Table 17; modified Gompertz model; not marked ^: unreliable estimation, interpret with caution
[12] = system: Enterococcus faecalis ATCC 19433; assay: MIC, broth microdilution in MH broth (resazurin); conditions: Table 17, modified Gompertz model
[13] = system: Escherichia coli ATCC 25922; assay: MIC, broth microdilution in MH broth (resazurin); conditions: Table 17; modified Gompertz model; not marked ^: unreliable estimation, interpret with caution
[14] = system: Pseudomonas aeruginosa ATCC 27853; assay: MIC, broth microdilution in MH broth (resazurin); conditions: Table 17; modified Gompertz model; not marked ^: unreliable estimation, interpret with caution
[15] = Assessment of MIC of select compounds, DMSO stocks (Example 8, Table 21); format: cell-based
[16] = system: S. aureus NRS 384; assay: Mouse Staphylococcus aureus-induced wound infection model, bacteria load in wound site (Studies I-V); conditions: for Ig(CFU/wound site) / ΔIg(CFU/wound site) vs infection control: Study III (Table 12), 1 mg/ml
[17] = system: Staphylococcus aureus NRS384; assay: Murine wound infection model, bacterial CFU/wound (Example 6); conditions: Study 2 pilot; daily application of vancomycin (10 μg per wound)
[18] = system: Staphylococcus aureus MR1; assay: MIC, broth microdilution in MH broth (resazurin); conditions: Table 17; modified Gompertz model; not marked ^: unreliable estimation, interpret with caution
[19] = 10 μL/wound site, 10 μg/wound site, twice a day, 24 h p.i.
[20] = 10 μL/wound site, 10 μg/wound site, twice a day, 48 h p.i.
[21] = 10 μL/wound site, 10 μg/wound site, twice a day, 72 h p.i.
[22] = 50 μL/wound site, 50 μg/wound site, twice a day, 24 h p.i.

SMILES: CN[C@H](CC(C)C)C(=O)N[C@H]1C(=O)N[C@@H](CC(N)=O)C(=O)N[C@H]2C(=O)N[C@H]3C(=O)N[C@H](C(=O)N[C@H](C(=O)O)c4cc(O)cc(O)c4-c4cc3ccc4O)[C@H](O)c3ccc(c(Cl)c3)Oc3cc2cc(c3O[C@@H]2O[C@H](CO)[C@@H](O)[C@H](O)[C@H]2O[C@H]2C[C@](C)(N)[C@H](O)[C@H](C)O2)Oc2ccc(cc2Cl)[C@H]1O [Van]
- MBC Concentration (μM) H ([1]; Escherichia coli EC25922, Example 11): 0.31 µM (≈ 0.449 µg/mL)
- MBC Concentration (μM) G [2]: 2.50 µM (≈ 3.62 µg/mL)
- MBC Concentration (μM) C [3]: 0.02 µM (≈ 0.029 µg/mL)
- MBC Concentration (μM) E [4]: 0.08 µM (≈ 0.116 µg/mL)
- MBC Concentration (μM) F ([5]; Klebisella pneumoniae KL1, Example 11): 1.25 µM (≈ 1.81 µg/mL)
- MBC Concentration (μM) B [6]: 0.02 µM (≈ 0.029 µg/mL)
- MBC Concentration (μM) D [7]: 0.04 µM (≈ 0.058 µg/mL)
- MBC Concentration (μM) A [8]: 0.02 µM (≈ 0.029 µg/mL)

SMILES: CCCCCCCCCCCCCCCCCC[N+](C)(C)CCOCCO.[Br-] [Compound 39637_105543]
- Mammalian Cell Cytotoxicity, HDF [9]: 6.3 µM
- Mammalian Cell Cytotoxicity, HaCaT [10]: 6.3 µM
- MIC KL1 [11]: +infinity
- MIC EF19433 ([12]; marked ^: reliable estimation of MIC): 3.20^ μM

SMILES: CCCCCC[N+](C)(C)CCOCCO.[Br-] [Compound 40598_109448]
- MIC EC25922 [13]: 0.83 µM
- Mammalian Cell Cytotoxicity, HDF [9]: >100 µM
- MIC PA27853 [14]: 0.06 µM
- Mammalian Cell Cytotoxicity, HaCaT [10]: >100 µM
- MIC EF19433 ([12]; not marked ^: unreliable estimation, interpret with caution): Unstable

SMILES: CN[C@H](CC(C)C)C(=O)N[C@H]1C(=O)N[C@@H](CC(N)=O)C(=O)N[C@H]2C(=O)N[C@H]3C(=O)N[C@H](C(=O)N[C@H](C(=O)O)c4cc(O)cc(O)c4-c4cc3ccc4O)[C@H](O)c3ccc(c(Cl)c3)Oc3cc2cc(c3O[C@@H]2O[C@H](CO)[C@@H](O)[C@H](O)[C@H]2O[C@H]2C[C@](C)(N)[C@H](O)[C@H](C)O2)Oc2ccc(cc2Cl)[C@H]1O [Vancomycin]
- MIC Concentration ([15]; Enterococcus faecalis EF19433): 5.00 µM
- MIC Concentration ([15]; Escherichia coli EC25922): 0.63 µM
- MIC Concentration ([15]; Klebisella oxytoca KL1): 0.63 µM
- MIC Concentration ([15]; Pseudomonas aeruginosa 27853): 5.00 µM
- MIC Concentration ([15]; Staphylococcus aureus 29213): 0.04 µM
- MIC Concentration ([15]; Staphylococcus aureus MR1): 0.04 µM
- MIC Concentration ([15]; Staphylococcus aureus NRS384): 0.04 µM
- Ig (CFU/wound site) 12 h p.i. ([16]; Study I, inoculum 4.20E+06 CFU/wound site, 39637 and 20-1 100 μM, 50 μL/wound site, once a day, Vancomycin 1 mg/ml, 10 μL/wound site, twice a day, starting at 5 min p.i.): 8.47 ± 0.22 Ig (CFU/wound site)
- Ig (CFU/wound site) 24 h p.i. ([16]; Study I, same regimens as E1): 7.67 ± 0.60 Ig (CFU/wound site)
- ΔIg (CFU/wound site) vs 12 h infection control ([16]; Study I, same regimens as E1): −0.11 ± 0.22 Ig (CFU/wound site)
- ΔIg (CFU/wound site) vs 24 h infection control ([16]; Study I, same regimens as E1): −1.12 ± 0.60 Ig (CFU/wound site)
- effect at 12-hour post infection ([16]; Study I, single dose at 10 μg): not manifest
- Ig(CFU/wound site) [16, 19]: 7.67 Ig(CFU/wound site)
- ΔIg(CFU/wound site) vs infection control [16, 19]: −1.11 Ig(CFU/wound site)
- Ig(CFU/wound site) [16, 20]: 5.29 Ig(CFU/wound site)
- ΔIg(CFU/wound site) vs infection control [16, 20]: −3.28 Ig(CFU/wound site)
- Ig(CFU/wound site) [16, 21]: 5.12 Ig(CFU/wound site)
- ΔIg(CFU/wound site) vs infection control [16, 21]: −2.83 Ig(CFU/wound site)
- Ig(CFU/wound site) [16, 22]: 4.37 Ig(CFU/wound site)
- ΔIg(CFU/wound site) vs infection control [16, 22]: −4.40 Ig(CFU/wound site)
- log reduction in wound S. aureus at 24 hrs post-seeding [17]: 1 log
- log reduction in wound S. aureus at 72 hrs post-seeding [17]: 1 log

SMILES: CCCCCCCCCCCCCCCCCC[N+](C)(C)CCOCCO.[Br-] [Compound 39637_109466]
- MBC EC25922 [1]: 25 µM
- Mammalian Cell Cytotoxicity, HDF [9]: 6.3 µM
- Mammalian Cell Cytotoxicity, HaCaT [10]: 6.3 µM
- MBC KL1 ([5]; Table 18): 50 µM

SMILES: CCCCCCCCCCCC[N+](C)(C)CCOCCO.[Br-] [Compound 40597_109444]
- MIC MR1 [18]: 0.94 µM
- Mammalian Cell Cytotoxicity, HDF [9]: 100 µM
- Mammalian Cell Cytotoxicity, HaCaT [10]: 100 µM
- MIC KL1 [11]: 0.01 µM

SMILES: CCCCCCCCCCCCCCCCCC[N+](C)(C)CCOCCO.[Br-] [39637 105543]
- MBC EC25922 [1]: 25 µM
